Test results: PMC6801739, “Antitumor Activity of a Novel Tyrosine Kinase Inhibitor AIU2001 Due to Abrogation of the DNA Damage Repair in Non-Small Cell Lung Cancer Cells” (International Journal of Molecular Sciences, 2019)

Columns and labels:
ALK = target: T1, ALK (Homo sapiens, UniProt Q9UM73); test: Kinase profiling at 10 μM (Eurofins); type: biochemical; conditions: read-out: Inhibitory activity
T1 construct: purchased Eurofins Pharma Discovery (KinaseProfiler); IC50 values by Reaction Biology Corp

ARK5 = target: T2, ARK5 (Homo sapiens, UniProt O60285); test: Kinase profiling at 10 μM (Eurofins); type: biochemical; conditions: read-out: Inhibitory activity
T2 construct: purchased Eurofins Pharma Discovery (KinaseProfiler); IC50 values by Reaction Biology Corp

B-RAF = target: T3, B-RAF (Homo sapiens, UniProt P15056); test: Kinase profiling at 10 μM (Eurofins); type: biochemical; conditions: read-out: Inhibitory activity
T3 construct: purchased Eurofins Pharma Discovery (KinaseProfiler); IC50 values by Reaction Biology Corp

CDK5/p35 = target: T4, CDK5/p35 (Homo sapiens, UniProt Q00535); test: Kinase profiling at 10 μM (Eurofins); type: biochemical; conditions: read-out: Inhibitory activity
T4 construct: purchased Eurofins Pharma Discovery (KinaseProfiler); IC50 values by Reaction Biology Corp

CHK2 = target: T5, CHK2 (Homo sapiens, UniProt O96017); test: Kinase profiling at 10 μM (Eurofins); type: biochemical; conditions: read-out: Inhibitory activity
T5 construct: purchased Eurofins Pharma Discovery (KinaseProfiler); IC50 values by Reaction Biology Corp

CK1γ1 = target: T6, CK1γ1 (Homo sapiens, UniProt Q9HCP0); test: Kinase profiling at 10 μM (Eurofins); type: biochemical; conditions: read-out: Inhibitory activity
T6 construct: purchased Eurofins Pharma Discovery (KinaseProfiler); IC50 values by Reaction Biology Corp

c-KIT (D816H) = target: T7, c-KIT (D816H) (Homo sapiens, UniProt P10721, D816H); test: Kinase profiling at 10 μM (Eurofins); type: biochemical; conditions: read-out: Inhibitory activity
T7 construct: purchased Eurofins Pharma Discovery (KinaseProfiler); IC50 values by Reaction Biology Corp

c-KIT (V560G) = target: T8, c-KIT (V560G) (Homo sapiens, UniProt P10721, V560G); test: Kinase profiling at 10 μM (Eurofins); type: biochemical; conditions: read-out: Inhibitory activity
T8 construct: purchased Eurofins Pharma Discovery (KinaseProfiler); IC50 values by Reaction Biology Corp

DAPK1 = target: T9, DAPK1 (Homo sapiens, UniProt P53355); test: Kinase profiling at 10 μM (Eurofins); type: biochemical; conditions: read-out: Inhibitory activity
T9 construct: purchased Eurofins Pharma Discovery (KinaseProfiler); IC50 values by Reaction Biology Corp

EPHB4 = target: T10, EPHB4 (Homo sapiens, UniProt P54760); test: Kinase profiling at 10 μM (Eurofins); type: biochemical; conditions: read-out: Inhibitory activity
T10 construct: purchased Eurofins Pharma Discovery (KinaseProfiler); IC50 values by Reaction Biology Corp

ERBB2 = target: T11, ERBB2 (Homo sapiens, UniProt P04626); test: Kinase profiling at 10 μM (Eurofins); type: biochemical; conditions: read-out: Inhibitory activity
T11 construct: purchased Eurofins Pharma Discovery (KinaseProfiler); IC50 values by Reaction Biology Corp

IGF-1R = target: T12, IGF-1R (Homo sapiens, UniProt P08069); test: Kinase profiling at 10 μM (Eurofins); type: biochemical; conditions: read-out: Inhibitory activity
T12 construct: purchased Eurofins Pharma Discovery (KinaseProfiler); IC50 values by Reaction Biology Corp

PDGFRα(D842V) = target: T13, PDGFRα(D842V) (Homo sapiens, UniProt P16234, D842V); test: Kinase profiling at 10 μM (Eurofins); type: biochemical; conditions: read-out: Inhibitory activity
T13 construct: purchased Eurofins Pharma Discovery (KinaseProfiler); IC50 values by Reaction Biology Corp

PIM-1 = target: T14, PIM-1 (Homo sapiens, UniProt P11309); test: Kinase profiling at 10 μM (Eurofins); type: biochemical; conditions: read-out: Inhibitory activity
T14 construct: purchased Eurofins Pharma Discovery (KinaseProfiler); IC50 values by Reaction Biology Corp

PKBα = target: T15, PKBα (Homo sapiens, UniProt P31749); test: Kinase profiling at 10 μM (Eurofins); type: biochemical; conditions: read-out: Inhibitory activity
T15 construct: purchased Eurofins Pharma Discovery (KinaseProfiler); IC50 values by Reaction Biology Corp

PKCα = target: T16, PKCα (Homo sapiens, UniProt P17252); test: Kinase profiling at 10 μM (Eurofins); type: biochemical; conditions: read-out: Inhibitory activity
T16 construct: purchased Eurofins Pharma Discovery (KinaseProfiler); IC50 values by Reaction Biology Corp

WEE1 = target: T17, WEE1 (Homo sapiens, UniProt P30291); test: Kinase profiling at 10 μM (Eurofins); type: biochemical; conditions: read-out: Inhibitory activity
T17 construct: purchased Eurofins Pharma Discovery (KinaseProfiler); IC50 values by Reaction Biology Corp

BEAS2B cells = test: MTT cell viability assay; type: cell-based, human; conditions: BEAS2B normal bronchial epithelial cells, five days
Experimental: (§1) Cell viability was assessed using the MTT colorimetric assay. Cells (1 × 10^3 cells/well) were seeded into 96-well plates and treated with the various concentrations of each compound or combination of two compounds. After five days of treatment, 10 μL MTT (0.5 mg/mL) was added, and further incubated for 3 h. After removal of the supernatant, the resultant pellet was dissolved in DMSO. The absorbance of the resultant formazan was measured at 540 nm using a plate reader (Multiskan EX; ThermoLabsystems, Waltham, MA, USA).

CCD18-Lu cells = test: MTT cell viability assay; type: cell-based, human; conditions: CCD18-Lu lung fibroblast cells, five days
Experimental: as §1

H460 cells = test: MTT cell viability assay; type: cell-based, human; conditions: five days
Experimental: as §1

A549 cells [1] = test: Immunoblot of cleaved caspase-3 and PARP-1; type: cell-based, human; conditions: 48 h
Experimental: (§2) Cell lysates were prepared by extracting proteins with TNN buffer (40 mM Tris-Cl pH 8.0, 0.2% NP-40, 120 mM NaCl) or radioimmunoprecipitation assay (RIPA) lysis buffer (Millipore, Billerica MA, USA) supplemented with a protease inhibitor cocktail (Thermo Fisher Scientific, Rockford, IL, USA). Equal amounts of proteins were separated using SDS-PAGE on 8–13% gels, and transferred to nitrocellulose membranes (Bio-Rad, Hercules, CA, USA). The membranes were blocked with 5% skim milk in Tris-buffered saline-Tween 20 (TBST) (150 mM NaCl, 10 mM Tris, 0.2% Tween20), followed by overnight incubation with primary antibodies at 4 °C. The blots were developed using peroxidase-conjugated secondary antibody and the immunoreactive proteins were visualized using enhanced chemiluminescence (ECL) reagents, according to the manufacturer’s recommendations (Amersham, GE Healthcare, Buckingamshire, UK). The protein bands were visualized using a digital imaging system (ImageQuant LAS 4000 mini; GE Healthcare, UK). The protein levels were analyzed using Image J software (National Institutes of Health, Bethesda, MD, USA). Experiments were repeated at least thrice.

H1299 cells [2] = test: Immunoblot of cleaved caspase-3 and PARP-1; type: cell-based, human; conditions: 48 h
Experimental: as §2

A549 cells [3] = test: Immunoblot of cell cycle checkpoint proteins; type: cell-based, human; conditions: 5 μM
Experimental: as §2

H1299 cells [4] = test: Immunoblot of cell cycle checkpoint proteins; type: cell-based, human; conditions: 5 μM, 6 h or 24 h
Experimental: as §2

FLT3(D835Y) = FLT3(D835Y) (Homo sapiens, UniProt P36888, D835Y); test: Kinase profiling at 10 μM (Eurofins); type: biochemical; parameters: purchased Eurofins Pharma Discovery (KinaseProfiler); IC50 values by Reaction Biology Corp; conditions: read-out: Inhibitory activity

T9 sequence (P53355 whole entry): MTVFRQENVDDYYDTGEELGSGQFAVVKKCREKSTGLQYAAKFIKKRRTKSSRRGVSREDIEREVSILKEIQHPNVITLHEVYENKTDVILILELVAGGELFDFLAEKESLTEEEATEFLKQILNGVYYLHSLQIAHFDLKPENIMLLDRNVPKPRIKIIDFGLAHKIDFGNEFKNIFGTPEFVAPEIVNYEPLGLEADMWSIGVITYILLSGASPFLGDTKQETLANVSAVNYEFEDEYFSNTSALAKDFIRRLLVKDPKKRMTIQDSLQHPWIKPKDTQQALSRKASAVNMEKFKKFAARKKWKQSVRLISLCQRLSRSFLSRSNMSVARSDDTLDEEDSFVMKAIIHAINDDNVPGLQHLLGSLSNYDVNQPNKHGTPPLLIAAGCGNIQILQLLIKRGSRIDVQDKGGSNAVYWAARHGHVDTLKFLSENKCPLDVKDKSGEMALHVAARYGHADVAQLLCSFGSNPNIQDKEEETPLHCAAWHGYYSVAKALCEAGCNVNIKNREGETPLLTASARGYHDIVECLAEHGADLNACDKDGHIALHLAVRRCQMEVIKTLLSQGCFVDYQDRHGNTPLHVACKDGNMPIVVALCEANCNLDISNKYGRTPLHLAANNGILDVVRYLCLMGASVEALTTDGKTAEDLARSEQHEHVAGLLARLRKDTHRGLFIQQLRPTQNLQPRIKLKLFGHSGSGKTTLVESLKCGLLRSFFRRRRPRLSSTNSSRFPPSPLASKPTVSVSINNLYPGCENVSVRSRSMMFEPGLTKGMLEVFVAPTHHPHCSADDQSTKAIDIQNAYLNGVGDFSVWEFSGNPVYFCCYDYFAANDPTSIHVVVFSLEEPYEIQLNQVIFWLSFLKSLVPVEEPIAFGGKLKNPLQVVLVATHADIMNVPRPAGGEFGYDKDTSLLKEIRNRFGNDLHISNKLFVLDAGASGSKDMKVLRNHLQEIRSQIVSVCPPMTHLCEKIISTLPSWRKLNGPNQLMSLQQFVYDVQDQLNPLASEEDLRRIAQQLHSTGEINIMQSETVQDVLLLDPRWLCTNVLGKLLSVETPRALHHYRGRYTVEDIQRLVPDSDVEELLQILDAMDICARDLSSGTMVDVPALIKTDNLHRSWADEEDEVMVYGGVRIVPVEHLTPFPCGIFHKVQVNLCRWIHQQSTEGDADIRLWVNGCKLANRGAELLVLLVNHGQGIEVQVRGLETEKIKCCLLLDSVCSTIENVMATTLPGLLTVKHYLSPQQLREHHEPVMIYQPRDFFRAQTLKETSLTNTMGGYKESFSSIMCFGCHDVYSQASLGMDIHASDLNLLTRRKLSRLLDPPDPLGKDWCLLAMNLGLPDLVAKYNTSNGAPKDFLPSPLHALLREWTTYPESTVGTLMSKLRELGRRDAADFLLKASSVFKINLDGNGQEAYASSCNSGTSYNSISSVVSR
T10 sequence (P54760 16-987): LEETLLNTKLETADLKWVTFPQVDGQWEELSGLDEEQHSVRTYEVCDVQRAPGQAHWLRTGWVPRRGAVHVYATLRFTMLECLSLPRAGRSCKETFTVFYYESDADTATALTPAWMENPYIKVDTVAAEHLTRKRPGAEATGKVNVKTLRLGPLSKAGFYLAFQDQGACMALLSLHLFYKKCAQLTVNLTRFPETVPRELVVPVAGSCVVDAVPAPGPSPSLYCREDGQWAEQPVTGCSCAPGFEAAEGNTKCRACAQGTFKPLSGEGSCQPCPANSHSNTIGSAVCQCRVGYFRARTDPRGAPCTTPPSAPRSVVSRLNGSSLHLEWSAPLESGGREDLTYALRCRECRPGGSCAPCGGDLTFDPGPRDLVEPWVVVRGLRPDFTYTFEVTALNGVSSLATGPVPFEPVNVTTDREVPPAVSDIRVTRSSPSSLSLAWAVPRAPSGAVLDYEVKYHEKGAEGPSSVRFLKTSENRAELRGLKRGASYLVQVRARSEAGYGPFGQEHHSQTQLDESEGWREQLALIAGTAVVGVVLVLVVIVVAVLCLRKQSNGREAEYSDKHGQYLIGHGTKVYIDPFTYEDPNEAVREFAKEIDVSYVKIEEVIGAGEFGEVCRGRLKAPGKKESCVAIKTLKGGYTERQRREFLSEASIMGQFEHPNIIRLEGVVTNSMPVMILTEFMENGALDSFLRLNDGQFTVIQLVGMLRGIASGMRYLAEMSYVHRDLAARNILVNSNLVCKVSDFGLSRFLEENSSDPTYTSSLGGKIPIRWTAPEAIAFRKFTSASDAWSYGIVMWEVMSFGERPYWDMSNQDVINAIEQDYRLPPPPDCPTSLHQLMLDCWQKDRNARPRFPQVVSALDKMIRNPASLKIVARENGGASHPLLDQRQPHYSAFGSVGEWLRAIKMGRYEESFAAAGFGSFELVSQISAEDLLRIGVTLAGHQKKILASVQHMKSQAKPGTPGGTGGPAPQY
T15 sequence (P31749 whole entry): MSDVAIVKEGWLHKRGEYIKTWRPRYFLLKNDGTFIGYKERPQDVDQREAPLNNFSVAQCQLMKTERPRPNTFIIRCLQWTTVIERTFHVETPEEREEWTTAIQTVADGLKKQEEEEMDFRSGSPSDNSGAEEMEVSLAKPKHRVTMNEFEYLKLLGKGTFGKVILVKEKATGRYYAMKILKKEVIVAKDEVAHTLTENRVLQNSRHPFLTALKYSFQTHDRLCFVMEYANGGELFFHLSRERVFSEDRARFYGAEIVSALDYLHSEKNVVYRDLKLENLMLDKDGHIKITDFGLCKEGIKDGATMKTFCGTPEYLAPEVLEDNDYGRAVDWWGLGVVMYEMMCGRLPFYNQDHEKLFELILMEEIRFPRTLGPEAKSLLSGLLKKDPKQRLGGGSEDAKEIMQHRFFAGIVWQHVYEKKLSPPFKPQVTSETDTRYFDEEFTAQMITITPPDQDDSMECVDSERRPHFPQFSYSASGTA
T3 sequence (P15056 whole entry): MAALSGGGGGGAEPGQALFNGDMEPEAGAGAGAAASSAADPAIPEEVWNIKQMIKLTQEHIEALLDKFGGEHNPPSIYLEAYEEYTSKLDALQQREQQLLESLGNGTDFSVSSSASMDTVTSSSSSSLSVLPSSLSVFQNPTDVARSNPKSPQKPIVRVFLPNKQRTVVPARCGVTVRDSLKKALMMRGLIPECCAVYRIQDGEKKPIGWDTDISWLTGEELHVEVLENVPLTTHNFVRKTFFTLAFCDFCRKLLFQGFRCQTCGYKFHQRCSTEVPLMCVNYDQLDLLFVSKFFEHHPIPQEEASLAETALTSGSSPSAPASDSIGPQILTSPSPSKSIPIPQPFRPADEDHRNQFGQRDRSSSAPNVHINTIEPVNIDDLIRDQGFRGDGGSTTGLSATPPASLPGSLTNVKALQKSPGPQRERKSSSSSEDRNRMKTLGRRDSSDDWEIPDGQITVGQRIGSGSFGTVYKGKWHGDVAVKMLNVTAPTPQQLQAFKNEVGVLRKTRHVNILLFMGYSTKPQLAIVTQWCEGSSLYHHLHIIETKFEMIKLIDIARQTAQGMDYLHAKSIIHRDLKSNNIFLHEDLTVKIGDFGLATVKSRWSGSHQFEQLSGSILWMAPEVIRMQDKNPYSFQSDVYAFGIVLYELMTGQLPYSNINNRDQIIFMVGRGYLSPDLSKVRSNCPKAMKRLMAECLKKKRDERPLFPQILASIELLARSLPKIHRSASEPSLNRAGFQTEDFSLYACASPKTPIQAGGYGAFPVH
T17 sequence (P30291 whole entry): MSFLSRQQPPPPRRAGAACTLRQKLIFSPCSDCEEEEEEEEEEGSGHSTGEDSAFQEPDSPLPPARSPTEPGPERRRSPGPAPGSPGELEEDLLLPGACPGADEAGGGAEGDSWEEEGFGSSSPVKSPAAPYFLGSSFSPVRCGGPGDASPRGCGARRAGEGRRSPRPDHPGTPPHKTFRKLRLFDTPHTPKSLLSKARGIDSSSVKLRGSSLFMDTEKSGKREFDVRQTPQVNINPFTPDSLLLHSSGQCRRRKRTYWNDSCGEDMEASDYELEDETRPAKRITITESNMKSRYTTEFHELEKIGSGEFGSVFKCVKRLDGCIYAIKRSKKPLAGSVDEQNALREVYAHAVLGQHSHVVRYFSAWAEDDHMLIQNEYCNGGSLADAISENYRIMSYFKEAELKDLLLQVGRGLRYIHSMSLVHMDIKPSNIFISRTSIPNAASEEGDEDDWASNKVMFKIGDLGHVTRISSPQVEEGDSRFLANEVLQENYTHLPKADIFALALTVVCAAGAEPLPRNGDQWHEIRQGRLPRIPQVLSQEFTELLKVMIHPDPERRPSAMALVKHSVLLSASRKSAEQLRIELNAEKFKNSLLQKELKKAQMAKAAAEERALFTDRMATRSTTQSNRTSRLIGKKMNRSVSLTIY

inhibition at 10 µM (ALK): 0%
inhibition at 10 µM (ARK5): 75%
inhibition at 10 µM (B-RAF): 0%
inhibition at 10 µM (CDK5/p35): 58%
inhibition at 10 µM (CHK2): 14%
inhibition at 10 µM (CK1γ1): 37%
inhibition at 10 µM (c-KIT (D816H)): 48%
inhibition at 10 µM (c-KIT (V560G)): ≥ 75%
inhibition at 10 µM (DAPK1): 12%
inhibition at 10 µM (EPHB4): 10%
inhibition at 10 µM (ERBB2): 0%
inhibition at 10 µM (IGF-1R): 0%
inhibition at 10 µM (PDGFRα(D842V)): 23%
inhibition at 10 µM (PIM-1): 37%
inhibition at 10 µM (PKBα): 24%
inhibition at 10 µM (PKCα): 9%
inhibition at 10 µM (WEE1): 8%
inhibition at 10 µM (FLT3(D835Y)): ≥ 75%
Compound: Brc1ccc(-c2cnc(Nc3cccc4ccccc34)o2)cc1 [AIU2001, 5-(4-bromophenyl)-N-(naphthalen-1-yl) oxazol-2-amine]
Growth inhibition (BEAS2B cells): relatively less
Growth inhibition (CCD18-Lu cells): relatively less
Growth inhibition (H460 cells): significantly inhibited the growth
Cleavage of caspase-3 and PARP-1 (A549 cells [1]): increased cleavage
Cleavage of caspase-3 and PARP-1 (H1299 cells [2]): increased cleavage
Expression of p21 (A549 cells [3]; A549 (p53 wild-type)): increased in A549 cells
Expression of phosphorylated p53 (A549 cells [3]; A549 (p53 wild-type)): increased in A549 cells
CDC25C level (A549 cells [3]; A549, 6 h or 24 h): decrease
Cyclin B1 level (A549 cells [3]; A549, 6 h or 24 h): significant increase
Phosphorylated histone H3 level (A549 cells [3]; A549, 6 h or 24 h): significant increase
Phosphorylation of CHK1 at Ser345 (A549 cells [3]; A549, 6 h or 24 h): increased the phosphorylation
Phosphorylation of CHK2 at Thr68 (A549 cells [3]; A549, 6 h or 24 h): increased the phosphorylation
CDC25C level (H1299 cells [4]): decrease
Cyclin B1 level (H1299 cells [4]): significant increase
Phosphorylated histone H3 level (H1299 cells [4]): significant increase
Phosphorylation of CHK1 at Ser345 (H1299 cells [4]): increased the phosphorylation
Phosphorylation of CHK2 at Thr68 (H1299 cells [4]): increased the phosphorylation
